How the values were obtained:
[1] = Antioxidant activity assessed as inhibition of […] radical by spectrophotometric method; format: functional
[2] = Antioxidant activity assessed as […] radical scavenging activity by spectrophotometric method relative to control; format: functional; parameters: concentration or dose not given beside the values

Row | Compound | IC50 [1] | Activity [2]
1 | Cc1oc2cc(OCC(O)CSC(=S)N3CCC(Cc4ccccc4)CC3)ccc2c(=O)c1C (stereo not given) | 1570 µM | 31.8%
2 | Cc1oc2cc(OCC(O)CSC(=S)N3CCN(Cc4ccc5c(c4)OCO5)CC3)ccc2c(=O)c1C (stereo not given) | 1380 µM | 36.8%
3 | O=C1O[C@H]([C@@H](O)CO)C(O)=C1O [ASCORBIC ACID] | 1640 µM | 30.4%
4 | Cc1oc2cc(OCC(O)CSC(=S)N3CCN(c4ccccc4)CC3)ccc2c(=O)c1C (stereo not given) | 2240 µM | 24.8%

Continued, in another order:

Row | IC50 [1] | Compound | Activity [2]
5 | 1590 µM | COc1ccccc1N1CCN(C(=S)SCC(O)COc2ccc3c(=O)c(C)c(C)oc3c2)CC1 (stereo not given) | 31.6%
6 | 2040 µM | Cc1oc2cc(OCC(O)CSC(=S)N3CCN(c4ccc(F)cc4)CC3)ccc2c(=O)c1C (stereo not given) | 24.8%
7 | 1400 µM | Cc1oc2cc(OCC(O)CSC(=S)N3CCOCC3)ccc2c(=O)c1C (stereo not given) | 35.6%
8 | 1620 µM | Cc1oc2cc(OCC(O)CSC(=S)N3CCN(C(c4ccccc4)c4ccccc4)CC3)ccc2c(=O)c1C (stereo not given) | 30.9%
9 | 1710 µM | CCN(CC)C(=S)SCC(O)COc1ccc2c(=O)c(C)c(C)oc2c1 (stereo not given) | 29.5%
10 | 1720 µM | Cc1oc2cc(OCC(O)CSC(=S)N3CCN(C)CC3)ccc2c(=O)c1C (stereo not given) | 29.4%

From ChEMBL document CHEMBL3994634, “Synthesis of new chromeno-carbamodithioate derivatives and preliminary evaluation of their antioxidant activity and molecular docking studies” (Bioorg Med Chem Lett, 2017)
